In US8563714B2, “Bridged spiro [2.4] heptane derivatives as ALX receptor and/or FPRL2 agonists” (Actelion Pharmaceuticals Ltd., priority 2009, dated 2013) one finds EC50 data, which are given here for 20 molecules.

By EC50 is commonly meant the midpoint of the concentration-response curve.

The target in one test is T1, human FPRL2 (Homo sapiens, UniProt P25089).
T1 construct: expressed in transfected cells; host or cells: HEK293 (HEK293-hFPRL2-Gα16)
T1 sequence (P25089 1-353): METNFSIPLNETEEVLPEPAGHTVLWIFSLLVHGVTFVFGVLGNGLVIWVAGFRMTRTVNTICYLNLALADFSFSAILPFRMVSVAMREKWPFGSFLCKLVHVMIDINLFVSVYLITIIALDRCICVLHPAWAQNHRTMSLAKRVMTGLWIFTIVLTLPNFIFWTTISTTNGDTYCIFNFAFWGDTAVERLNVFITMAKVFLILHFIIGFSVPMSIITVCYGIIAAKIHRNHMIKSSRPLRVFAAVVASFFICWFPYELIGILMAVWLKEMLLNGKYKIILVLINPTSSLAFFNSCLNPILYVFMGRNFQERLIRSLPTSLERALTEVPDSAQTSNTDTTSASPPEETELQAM
The test can be described thus: Intracellular calcium measurements (FLIPR), agonistic activity in HEK293-hFPRL2-Gα16 cells. The format is cell-based. The settings on record: Fluo-4 calcium FLIPR, normalized to GLY14-Humanin 100 nM. In outline: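 Peak values after baseline subtraction are expressed relative to 100 nM Gly14-Humanin; compounds diluted in assay buffer from 10 mM DMSO stocks.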
A general note: A change in cytosolic calcium serves as a functional read-out for many receptors and channels.

For the next test, the target named is T2, human ALX receptor (Homo sapiens, UniProt P25090).
T2 construct: expressed in transfected cells; host or cells: HEK293 (HEK293-hALXR-Gα16)
T2 sequence (P25090 1-351): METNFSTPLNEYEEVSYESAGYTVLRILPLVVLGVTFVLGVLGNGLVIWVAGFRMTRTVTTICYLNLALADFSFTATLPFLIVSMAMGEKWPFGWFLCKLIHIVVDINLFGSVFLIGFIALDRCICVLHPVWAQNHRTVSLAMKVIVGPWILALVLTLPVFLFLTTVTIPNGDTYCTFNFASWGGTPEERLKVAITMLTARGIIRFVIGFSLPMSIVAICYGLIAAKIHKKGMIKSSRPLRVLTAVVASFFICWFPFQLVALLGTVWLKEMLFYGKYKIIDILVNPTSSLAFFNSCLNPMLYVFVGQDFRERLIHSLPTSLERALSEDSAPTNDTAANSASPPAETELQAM
Kind of test: Intracellular calcium measurements (FLIPR), agonistic activity in HEK293-hALXR-Gα16 cells. The format is cell-based. The conditions noted are these: Fluo-4 calcium FLIPR, normalized to WKYMVm 10 nM. The procedure, abridged:
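HEK293 cells expressing hALXR and Gα16 were loaded with 1 μM Fluo-4 AM and 20 mM HEPES for 60 min at 37°C, then exposed to serially diluted compound. FLIPR fluorescence was read at ex 488/em 540 nm. Baseline-subtracted peak responses were normalized to 10 nM WKYMVm.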

On to `O=C(NCCCCN1CCCC1)[C@H]1[C@H](C(=O)NCCc2ccccn2)[C@@H]2C=C[C@H]1C21CC1` (racemic) [Example 343, (5R*)—N^5-(2-(Pyridin-2-yl)ethyl)-(6R*)—N^6-(4-pyrrolidino-butyl)-(4S*,7R*)-[4,7-ethenylene-spiro[2.4]heptane]-5,6-dicarboxamide], for which the EC50 at human FPRL2 was 885 nM; on human ALX receptor, > 2390 nM.

In the case of `O=C(Nc1ccnn1-c1ccccc1)[C@H]1[C@H](C(=O)Nc2ccc(Br)cc2)[C@@H]2C=C[C@H]1C21CC1` (racemic) [Example 72, (5R*)—N^5-(4-Bromophenyl)-(6R*)—N^6-(1-phenyl-1H-pyrazol-5-yl)-(4S*,7R*)-[4,7-ethenylene-spiro[2.4]heptane]-5,6-dicarboxamide], the EC50 on human FPRL2 was 1850 nM; on human ALX receptor, 70 nM.

As for `O=C(NCCCCN1CCCC1)[C@H]1[C@H](C(=O)NCc2ccc(Br)cc2F)[C@@H]2C=C[C@H]1C21CC1` [Example 284, (5R)—N^5-(4-Bromo-2-fluorophenyl-methyl)-(6R)—N^6-(4-pyrrolidino-butyl)-(4S,7R)-[4,7-ethenylene-spiro[2.4]heptane]-5,6-dicarboxamide], the concentration giving a half-maximal response (EC50) on human FPRL2 was 264 nM; on human ALX receptor it was 13 nM.

As to `CC(=O)c1csc(CNC(=O)[C@H]2[C@H](C(=O)NCCC(N)=O)[C@H]3C=C[C@@H]2C32CC2)n1` (racemic) [Example 261, (5R*)—N^5-(4-Acetyl-thiazol-2-yl-methyl)-(6R*)—N^6-(3-amino-3-oxopropyl)-(4S*,7R*)-[4,7-ethenylene-spiro[2.4]heptane]-5,6-dicarboxamide], the EC50 at human FPRL2 was > 25000 nM; on human ALX receptor, 297 nM.

On to `O=C(NCCN1CCNC1=O)[C@H]1[C@H](C(=O)Nc2ncc(Br)s2)[C@@H]2C=C[C@H]1C21CC1` (racemic) [Example 260, (5R*)—N^5-(5-Bromo-thiazol-2-yl)-(6R*)—N^6-((2-imidazolidin-2-on)-1-yl-ethyl)-(4S*,7R*)-[4,7-ethenylene-spiro[2.4]heptane]-5,6-dicarboxamide], for which the EC50 stood at 8730 nM on human FPRL2 and 9.1 nM on human ALX receptor.

As for `CCC(CC)CNC(=O)[C@H]1[C@H](C(=O)NCCCCN2CCCC2)[C@H]2C=C[C@@H]1C21CC1` (racemic) [Example 149, (5R*)—N^5-(2-Ethyl-butyl)-(6R*)—N^6-(4-pyrrolidin-1-yl-butyl)-(4S*,7R*)-[4,7-ethenylene-spiro[2.4]heptane]-5,6-dicarboxamide], the values for the EC50 at human FPRL2 and on human ALX receptor were 691 nM and 8090 nM, respectively.

On to `CN(C)CCCNC(=O)[C@H]1[C@H](C(=O)Nc2ccc(Br)cc2)[C@@H]2C=C[C@H]1C21CC1` (racemic) [Example 52, (5R*)—N^5-(4-Bromophenyl)-(6R*)—N^6-(3-dimethyl-amino-propyl)-(4S*,7R*)-[4,7-ethenylene-spiro[2.4]heptane]-5,6-dicarboxamide], for which the EC50 on human FPRL2 was determined as 6360 nM; at human ALX receptor, 9.6 nM.

In the case of `CC(C)(C)OC(=O)N1CCCC(CCNC(=O)C2C(C(=O)Nc3ccc(Br)cc3)C3C=CC2C32CC2)C1` (mixture of isomers) [Example 99, (5R*)—N^5-(4-Bromophenyl)-(6R*)—N^6-(2-(N-tert-butoxycarbonyl-piperidin-3-yl)-ethyl)-(4S*,7R*)-[4,7-ethenylene-spiro[2.4]heptane]-5,6-dicarboxamide], the half-maximal effective concentration (EC50) came out at 5490 nM at human FPRL2 and 552 nM on human ALX receptor.

Take `CC(C)(C)OC(=O)NCCCCNC(=O)[C@H]1[C@H](C(=O)Nc2ccc(Br)cc2)[C@@H]2C=C[C@H]1C21CC1` (racemic) [Example 46, (5R*)—N^5-(4-Bromophenyl)-(6R*)—N^6-(4-tert-butoxycarbonyl-amino-butyl)-(4S*,7R*)-[4,7-ethenylene-spiro[2.4]heptane]-5,6-dicarboxamide]: the EC50 on human FPRL2 was 1600 nM; at human ALX receptor, 11 nM.

As to `O=C(NCC(F)(F)F)[C@H]1[C@H](C(=O)Nc2ccc(Br)cc2)[C@@H]2C=C[C@H]1C21CC1` (racemic) [Example 19, (5R*)—N^5-(4-Bromophenyl)-(6R*)—N^6-(2,2,2-trifluoro-ethyl)-(4S*,7R*)-[4,7-ethenylene-spiro[2.4]heptane]-5,6-dicarboxamide], the EC50 at human FPRL2 worked out at 2480 nM; on human ALX receptor it was 2.4 nM.

In the case of `CC(NC(=O)C1C(C(=O)Nc2ccc(Br)cc2)C2C=CC1C21CC1)C(N)=O` (mixture of isomers) [Example 65, (5R*)—N^5-(4-Bromophenyl)-(6R*)—N^6-[(1S)-1-carbamoyl-ethyl]-(4S*,7R*)-[4,7-ethenylene-spiro[2.4]heptane]-5,6-dicarboxamide], the values for the EC50 at human FPRL2 and on human ALX receptor were > 25000 nM and 26 nM, respectively.

For the molecule `CC(C)(C)OC(=O)NCCCCCNC(=O)C1C(C(=O)Nc2ncc(Br)s2)C2CCC1C21CC1` [Example 333, (5R)—N^5-(5-Bromo-thiazol-2-yl)-(6R)—N^6-(5-tert-butoxycarbonyl-amino-pentyl)-(4S,7R)-[4,7-ethylene-spiro[2.4]heptane]-5,6-dicarboxamide], the EC50 stood at 1240 nM at human FPRL2 and 519 nM on human ALX receptor.

For the molecule `CC(C)(C)OC(=O)N1CCC(NC(=O)[C@H]2[C@H](C(=O)Nc3ccc(Br)cc3)[C@@H]3C=C[C@H]2C32CC2)CC1` (racemic) [Example 94, (5R*)—N^5-(4-Bromophenyl)-(6R*)—N^6—(N-tert-butoxycarbonyl-piperidin-4-yl)-(4S*,7R*)-[4,7-ethenylene-spiro[2.4]heptane]-5,6-dicarboxamide], the EC50 on human FPRL2 came out at 1040 nM; on human ALX receptor it was 218 nM.

For the molecule `O=C(NCCCCN1CCCC1)[C@H]1[C@H](C(=O)NCc2ccc(Cl)cc2)[C@@H]2C=C[C@H]1C21CC1` (racemic) [Example 230, (5R*)—N^5-(4-Chloro-phenyl-methyl)-(6R*)—N^6-(4-pyrrolidin-1-yl-butyl)-(4S*,7R*)-[4,7-ethenylene-spiro[2.4]heptane]-5,6-dicarboxamide], the EC50 on human FPRL2 came out at 65 nM; on human ALX receptor it was 31 nM.

Turning to `O=C(NCCCCN1CCCC1)[C@H]1[C@H](C(=O)NCc2cc(F)cc(C(F)(F)F)c2)[C@@H]2C=C[C@H]1C21CC1` (racemic) [Example 362, (5R*)—N^5-(3-Fluoro-5-trifluoromethylphenyl-methyl)-(6R*)—N^6-(4-pyrrolidino-butyl)-(4S*,7R*)-[4,7-ethenylene-spiro[2.4]heptane]-5,6-dicarboxamide], the EC50 on human FPRL2 was found to be 306 nM; on human ALX receptor it was 9090 nM.

On to `CC(=O)CCCNC(=O)[C@H]1[C@H](C(=O)NCCCCN2CCCC2)[C@H]2C=C[C@@H]1C21CC1` (racemic) [Example 140, (5R*)—N^5-(4-oxo-pentyl)-(6R*)—N^6-(4-pyrrolidin-1-yl-butyl)-(4S*,7R*)-[4,7-ethenylene-spiro[2.4]heptane]-5,6-dicarboxamide], for which the EC50 is 1310 nM on human FPRL2 and 748 nM on human ALX receptor.

As to `CC(=O)c1ncc(CNC(=O)[C@H]2[C@H](C(=O)NCCCCN3CCCC3)[C@H]3C=C[C@@H]2C32CC2)o1` (racemic) [Example 198, (5R*)—N^5-(2-Acetyl-oxazol-5-yl-methyl)-(6R*)—N^6-(4-pyrrolidin-1-yl-butyl)-(4S*,7R*)-[4,7-ethenylene-spiro[2.4]heptane]-5,6-dicarboxamide], the figures for the EC50 at human FPRL2 and on human ALX receptor were 462 nM and 92 nM, respectively.

Take `CC(=O)c1ccc(CNC(=O)[C@H]2[C@H](C(=O)NCCCCN3CCCC3)[C@H]3C=C[C@@H]2C32CC2)cc1` (racemic) [Example 363, (5R*)—N^5-(4-Acetylphenyl-methyl)-(6R*)—N^6-(4-pyrrolidino-butyl)-(4S*,7R*)-[4,7-ethenylene-spiro[2.4]heptane]-5,6-dicarboxamide]: the EC50 at human FPRL2 came to 570 nM; on human ALX receptor, 9740 nM.

As to `CC(CO)NC(=O)C1C(C(=O)Nc2ccc(Br)cc2)C2C=CC1C21CC1` (mixture of isomers) [Example 28, (5R*)—N^5-(4-Bromophenyl)-(6R*)—N^6-(1-hydroxy-prop-2-yl)-(4S*,7R*)-[4,7-ethenylene-spiro[2.4]heptane]-5,6-dicarboxamide], the EC50 is > 25000 nM at human FPRL2 and 4.5 nM on human ALX receptor.

For `Cc1nc(CCNC(=O)[C@H]2[C@H](C(=O)Nc3ccc(Br)cc3)[C@@H]3C=C[C@H]2C32CC2)[nH]c1C` (relative stereo) [Example 64, (5R*)—N^5-(4-Bromophenyl)-(6R*)—N^6-(2-(4,5-dimethyl-1H-imidazol-2-yl)-ethyl)-(4S*,7R*)-[4,7-ethenylene-spiro[2.4]heptane]-5,6-dicarboxamide], the EC50 came to 68 nM on human FPRL2 and 19 nM at human ALX receptor.
